Assay results: patent US4278671A, “7-[2-(2-Aminothiazol-4-yl)-2-(syn)-methoxyiminoacetamido] cephalosporins” (Takeda Chemical Industries, Ltd., priority 1976, dated 1981)
In brackets after ≈: the same amount, converted by molar mass.

Experiments:
E. coli NIHJ = assay: minimal inhibitory concentration against E. coli NIHJ; format: cell-based; details: Escherichia coli
[1] = tested on: Proteus mirabilis GN 4359; assay: minimal inhibitory concentration against P. mirabilis GN 4359; format: cell-based; details: Proteus mirabilis, GN4359; P. mirabilis GN 4359; read-out: minimal inhibitory concentration
[2] = tested on: Proteus morganii IFO 3168; assay: minimal inhibitory concentration against P. morganii IFO 3168; format: cell-based; details: Morganella morganii, IFO3168; P. morganii IFO 3168; read-out: minimal inhibitory concentration
[3] = tested on: Proteus vulgaris IFO 3988; assay: minimal inhibitory concentration against P. vulgaris IFO 3988; format: cell-based; details: Proteus vulgaris, IFO3988; P. vulgaris IFO 3988; read-out: minimal inhibitory concentration
Proteus rettgeri GN 4733 = assay: minimal inhibitory concentration against P. rettgeri GN 4733; format: cell-based; details: Providencia rettgeri, GN4733; P. rettgeri GN 4733; read-out: minimal inhibitory concentration
Serratia TN 0024 = assay: minimal inhibitory concentration against Serratia TN 0024; format: cell-based; details: TN0024; Serratia TN 0024; read-out: minimal inhibitory concentration
[4] = tested on: Serratia marcescens IFO 12648; assay: minimal inhibitory concentration against Serr. marcescens IFO 12648; format: cell-based; details: Serratia marcescens, IFO12648; Serr. marcescens IFO 12648; read-out: minimal inhibitory concentration
[5] = tested on: Acinetobacter anitratus TN-1140; assay: minimal inhibitory concentration against Acinetobacter anitratus TN-1140; format: cell-based; details: Acinetobacter calcoaceticus, TN1140
E. coli T-7 = assay: minimal inhibitory concentration against E. coli T-7; format: cell-based; details: Escherichia coli, T7
[6] = tested on: Citrobacter freundii GN 99; assay: minimal inhibitory concentration against Cit. freundii GN 99; format: cell-based; details: Citrobacter freundii, GN99; Cit. freundii GN 99; read-out: minimal inhibitory concentration
E. coli 0-111 = assay: minimal inhibitory concentration against E. coli 0-111; format: cell-based, Escherichia coli; details: Escherichia coli, 0111; E. coli 0-111; read-out: minimal inhibitory concentration
Ps. aeruginosa GN3407 = assay: minimal inhibitory concentration against Ps. aeruginosa GN3407; format: cell-based; details: Pseudomonas aeruginosa
Ps. aeruginosa P2 = assay: minimal inhibitory concentration against Ps. aeruginosa P2; format: cell-based; details: Pseudomonas aeruginosa
P. rettgeri 8(TN0336) = assay: minimal inhibitory concentration against P. rettgeri 8 (TN0336); format: cell-based, Proteus rettgeri; details: Providencia rettgeri; P. rettgeri 8(TN0336); read-out: minimal inhibitory concentration
[7] = tested on: Klebsiella pneumoniae GN 3835; assay: minimal inhibitory concentration against K. pneumoniae GN 3835; format: cell-based; details: Klebsiella pneumoniae, GN3835; K. pneumoniae GN 3835; read-out: minimal inhibitory concentration
Ps. aeruginosa PM 3 = assay: minimal inhibitory concentration against Ps. aeruginosa PM 3; format: cell-based; details: Pseudomonas aeruginosa, PM3
P. vulgaris GN 4413 = assay: minimal inhibitory concentration against P. vulgaris GN 4413; format: cell-based; details: Proteus vulgaris, GN4413
Ps. aeruginosa Pd 1 = assay: minimal inhibitory concentration against Ps. aeruginosa Pd 1; format: cell-based; details: Pseudomonas aeruginosa, PD1
[8] = tested on: Citrobacter freundii GN 1706; assay: minimal inhibitory concentration against Cit. freundii GN 1706; format: cell-based; details: Citrobacter freundii, GN1706; Cit. freundii GN 1706; read-out: minimal inhibitory concentration
Klebsiella pneumoniae DT = assay: minimal inhibitory concentration against K. pneumoniae DT; format: cell-based; details: Klebsiella pneumoniae; K. pneumoniae DT; read-out: minimal inhibitory concentration
E. coli = assay: protective effect on infected mice (intraperitoneal infection with E. coli); format: in vivo; details: Escherichia coli, 168 h, male mice ICR/SLC, 7 days observation
Description: *Test animals: male mice (ICR/SLC) 5 mice per group per single
Infection: intraperitoneally with E. coli
Observation period: 7 days

Ent. cloacae TN1282 = assay: minimal inhibitory concentration against Ent. cloacae TN1282; format: cell-based; details: Enterobacter cloacae
[9] = tested on: Enterobacter cloacae IFO 12937; assay: minimal inhibitory concentration against Ent. cloacae IFO 12937; format: cell-based; details: Enterobacter cloacae; Ent. cloacae IFO12937; read-out: minimum inhibitory concentration

Compound | MIC (E. coli NIHJ) | MIC [1] | MIC [2] | MIC [3] | MIC (Proteus rettgeri GN 4733) | MIC (Serratia TN 0024) | MIC [4] | MIC [5] | MIC (E. coli T-7) | MIC [6] | MIC (E. coli 0-111) | MIC (Ps. aeruginosa GN3407) | MIC (Ps. aeruginosa P2) | MIC (P. rettgeri 8(TN0336)) | MIC [7] | MIC (Ps. aeruginosa PM 3) | MIC (P. vulgaris GN 4413) | MIC [8] | MIC (Klebsiella pneumoniae DT) | ED50 (E. coli; subcutaneous (SC)) | further results
CO/N=C(\C(=O)NC1C(=O)N2C(C(=O)O)=C(COC(C)=O)CSC12)c1csc(N)n1 (stereo not drawn) [Example 3, sodium 7-[2-(2-aminothiazol-4-yl)-2-(syn)-methoxyiminoacetamido]cephalosporanate] | 0.2 µg/mL | 0.05 µg/mL | 0.2 µg/mL | 0.024 µg/mL | 0.2 µg/mL | 0.78 µg/mL | 3.13 µg/mL | 25 µg/mL | 0.78 µg/mL | 0.2 µg/mL | 0.05 µg/mL | 50 µg/mL | 50 µg/mL | ≤ 0.012 µg/mL | 0.05 µg/mL | 1.56 µg/mL | 0.78 µg/mL | 0.39 µg/mL | 0.024 µg/mL | 0.018 mg/kg | MIC (Ps. aeruginosa Pd 1): 25 µg/mL; MIC (Ent. cloacae TN1282): 6.25 µg/mL
CC1=C(C(=O)O)N2C(=O)[C@@H](NC(=O)[C@H](N)c3ccccc3)[C@H]2SC1 [CEX, cephalexin, reference compound] | – | – | – | – | – | – | – | – | – | – | – | – | – | – | – | – | – | – | – | – | ED50 (E. coli; oral): 2.51 mg/kg
O=C(Cc1cccs1)N[C@@H]1C(=O)N2C(C(=O)[O-])=C(C[n+]3ccccc3)CS[C@H]12 [CER, cephaloridine, reference compound] | – | – | – | – | – | – | – | – | – | – | – | – | – | – | – | – | – | – | – | 1.25 mg/kg | –
CO/N=C(\C(=O)NC1C(=O)N2C(C(=O)O)=C(CSc3nnnn3C)CSC12)c1csc(N)n1 (centres unmarked) [Example 2] | 0.1 µg/mL (≈ 0.195 µM) | 0.1 µg/mL (≈ 0.195 µM) | 0.05 µg/mL (≈ 0.0977 µM) | 0.024 µg/mL (≈ 0.0469 µM) | 0.2 µg/mL (≈ 0.391 µM) | 0.2 µg/mL (≈ 0.391 µM) | 0.78 µg/mL (≈ 1.52 µM) | 25 µg/mL (≈ 48.9 µM) | 0.78 µg/mL (≈ 1.52 µM) | 0.1 µg/mL (≈ 0.195 µM) | 0.024 µg/mL (≈ 0.0469 µM) | 50 µg/mL (≈ 97.7 µM) | 50 µg/mL (≈ 97.7 µM) | ≤ 0.012 µg/mL | 0.2 µg/mL (≈ 0.391 µM) | 0.78 µg/mL (≈ 1.52 µM) | 0.39 µg/mL (≈ 0.762 µM) | 0.2 µg/mL (≈ 0.391 µM) | 0.024 µg/mL (≈ 0.0469 µM) | 0.022 mg/kg | MIC (Ps. aeruginosa Pd 1): 12.5 µg/mL (≈ 24.4 µM); MIC (Ent. cloacae TN1282): 1.56 µg/mL (≈ 3.05 µM)
CO/N=C(\C(=O)NC1C(=O)N2C(C(=O)O)=C(CSc3nnnn3CCN(C)C)CSC12)c1csc(N)n1 (stereo not drawn) [(e), 7-[2-(2-Aminothiazol-4-yl)-2-(syn)-methoxyiminoacetamido]-3-[1-(2-N,N-dimethylaminoethyl)-1,2,3,4-tetrazol-5-yl]thiomethyl-3-cephem-4-carboxylic acid betaine] | 0.2 µg/mL (≈ 0.352 µM) | 0.39 µg/mL (≈ 0.686 µM) | 0.2 µg/mL (≈ 0.352 µM) | 0.2 µg/mL (≈ 0.352 µM) | 0.78 µg/mL (≈ 1.37 µM) | 0.78 µg/mL (≈ 1.37 µM) | 1.56 µg/mL (≈ 2.74 µM) | – | 1.56 µg/mL (≈ 2.74 µM) | 0.2 µg/mL (≈ 0.352 µM) | 0.024 µg/mL (≈ 0.0422 µM) | – | – | 0.024 µg/mL (≈ 0.0422 µM) | 0.2 µg/mL (≈ 0.352 µM) | – | 1.56 µg/mL (≈ 2.74 µM) | 0.78 µg/mL (≈ 1.37 µM) | 0.1 µg/mL (≈ 0.176 µM) | – | MIC [9]: 6.25 µg/mL (≈ 11 µM)
